Laboratory results taken from patent US20240365736A1, “COMPOSITIONS AND METHODS FOR TARGETED DEGRADATION OF PROTEINS IN A PLANT CELL” (Oerth Bio LLC, priority 2021, published 2024).

Test system: Matricaria recutita, Diplotaxis tenuifolia, Agrostis spp., Poa annua, or Arabidopsis thaliana
Test: Plant phenotyping assay (herbicidal phenotypes, 96-well plates); also: key: '+++' is highly active; '++' is moderately active; '+' is weakly active; '−' is inactive
Assay type: in vivo
Conditions: visual score of herbicidal phenotypes after seven days; 238, 475, 950, and 1900 g ai/ha (50-400 uM)
Description: Seeds of Matricaria recutita, Diplotaxis tenuifolia, Agrostis spp., Poa annua, or Arabidopsis thaliana were sown into 96-well plates containing 200 μl of growth media [0.5× Murashige and Skoog (MS) basal media (Sigma-Aldrich), 2.5 mM 2-(N-morpholino) ethanesulfonic acid (MES—Sigma-Aldrich), 0.7 g/L Phytagar (Invitrogen); pH 5.7]. Three to five seeds were distributed per well. Plates were placed under fifteen hours of light at 23° C., 65% humidity in a controlled environment growth chamber. After approximately three days, test compounds and controls were mixed with acetone and emulsified with an equal volume of 3% methyl ester of rapeseed oil (Mero), and applied to plants at concentrations of 238, 475, 950, and 1900 g ai/ha (50-400 uM).

SMILES | Plant Activity
COc1cnc(OC)n2nc(NS(=O)(=O)c3c(OC4CCN(CCOCCOCCOCCN5CCN(c6ccc7c(c6)C(=O)N(C6CCC(=O)NC6=O)C7=O)CC5)CC4)cccc3C(F)(F)F)nc12 (centres unmarked) [Compound 4-O, N-(5,8-Dimethoxy-[1,2,4]triazolo[1,5-c]pyrimidin-2-yl)-2-((1-(2-(2-(2-(2-(4-(2-(2,6-dioxopiperidin-3-yl)-1,3-dioxoisoindolin-5-yl)piperazin-1-yl)ethoxy)ethoxy)ethoxy)ethyl)piperidin-4-yl)oxy)-6-(trifluoromethyl)benzenesulfonamide] | −
COc1cnc(OC)n2nc(NS(=O)(=O)c3c(OCCOCCN4CCN(c5ccc6c(c5)C(=O)N(C5CCC(=O)NC5=O)C6=O)CC4)cccc3C(F)(F)F)nc12 (centres unmarked) [Compound 4-P, N-(5,8-dimethoxy-[1,2,4]triazolo[1,5-c]pyrimidin-2-yl)-2-(2-(2-(4-(2-(2,6-dioxopiperidin-3-yl)-1,3-dioxoisoindolin-5-yl)piperazin-1-yl)ethoxy)ethoxy)-6-(trifluoromethyl)benzenesulfonamide] | +
COc1cnc(OC)n2nc(NS(=O)(=O)c3c(OCCOCCOCCOCCCN4CCN(c5ccc6c(c5)C(=O)N(C5CCC(=O)NC5=O)C6=O)CC4)cccc3C(F)(F)F)nc12 (centres unmarked) [Compound 4-Q, N-(5,8-Dimethoxy-[1,2,4]triazolo[1,5-c]pyrimidin-2-yl)-2-(2-(2-(2-(3-(4-(2-(2,6-dioxopiperidin-3-yl)-1,3-dioxoisoindolin-5-yl)piperazin-1-yl)propoxy)ethoxy)ethoxy)ethoxy)-6-(trifluoromethyl)benzenesulfonamide] | ++
COc1cnc(OC)n2nc(NS(=O)(=O)c3c(OCCOCCOCCOCCOCCCN4CCN(c5ccc6c(c5)C(=O)N(C5CCC(=O)NC5=O)C6=O)CC4)cccc3C(F)(F)F)nc12 (centres unmarked) [Compound 4-R, N-(5,8-Dimethoxy-[1,2,4]triazolo[1,5-c]pyrimidin-2-yl)-2-((15-(4-(2-(2,6-dioxopiperidin-3-yl)-1,3-dioxoisoindolin-5-yl)piperazin-1-yl)-3,6,9,12-tetraoxapentadecyl)oxy)-6-(trifluoromethyl)benzenesulfonamide] | −
COc1cnc(OC)n2nc(NS(=O)(=O)c3c(OCCOCCN4CC(OCCCN5CCN(c6ccc7c(c6)C(=O)N(C6CCC(=O)NC6=O)C7=O)CC5)C(F)(F)C4)cccc3C(F)(F)F)nc12 (centres unmarked) [Compound 4-S, N-(5,8-Dimethoxy-[1,2,4]triazolo[1,5-c]pyrimidin-2-yl)-2-(2-(2-(4-(3-(4-(2-(2,6-dioxopiperidin-3-yl)-1,3-dioxoisoindolin-5-yl)piperazin-1-yl)propoxy)-3,3-difluoropyrrolidin-1-yl)ethoxy)ethoxy)-6-(trifluoromethyl)benzenesulfonamide] | ++
CCO/N=C(\CC)C1=C(O)CC(c2ccc(OCCOCCOCCOc3ccc4c(c3)C(=O)N(C3CCC(=O)NC3=O)C4=O)cc2)CC1=O (centres unmarked) [Compound 5, 2-(2,6-dioxo-3-piperidyl)-5-[2-[2-[2-[4-[4-[(E)-N-ethoxy-C-ethyl-carbonimidoyl]-3-hydroxy-5-oxo-cyclohex-3-en-1-yl]phenoxy]ethoxy]ethoxy]ethoxy]isoindoline-1,3-dione] | +
CCC(=O)C1=C(O)CC(c2ccc(OCCOCCOCCN3CCN(c4ccc5c(c4)C(=O)N(C4CCC(=O)NC4=O)C5=O)CC3)cc2)CC1=O (centres unmarked) [Compound 5-A, 2-(2,6-Dioxopiperidin-3-yl)-5-(4-(2-(2-(2-((5′-hydroxy-3′-oxo-4′-propionyl-1′,2′,3′,6′-tetrahydro-[1,1′-biphenyl]-4-yl)oxy)ethoxy)ethoxy)ethyl)piperazin-1-yl)isoindoline-1,3-dione] | −
CCO/N=C(\CC)C1=C(O)CC(c2ccc(OCCOCCOCCN3CCN(c4ccc5c(c4)C(=O)N(C4CCC(=O)NC4=O)C5=O)CC3)cc2)CC1=O (centres unmarked) [Compound 5-B, (E)-2-(2,6-Dioxopiperidin-3-yl)-5-(4-(2-(2-(2-((4′-(1-(ethoxyimino)propyl)-5′-hydroxy-3′-oxo-1′,2′,3′,6′-tetrahydro-[1,1′-biphenyl]-4-yl)oxy)ethoxy)ethoxy)ethyl)piperazin-1-yl)isoindoline-1,3-dione] | +
CCO/N=C(\CC)C1=C(O)CC(c2ccc(OC3CCN(CCOCCOCCOCCN4CCN(c5ccc6c(c5)C(=O)N(C5CCC(=O)NC5=O)C6=O)CC4)CC3)cc2)CC1=O (centres unmarked) [Compound 5-C, (E)-2-(2,6-Dioxopiperidin-3-yl)-5-(4-(2-(2-(2-(2-(4-((4′-(1-(ethoxyimino)propyl)-5′-hydroxy-3′-oxo-1′,2′,3′,6′-tetrahydro-[1,1′-biphenyl]-4-yl)oxy)piperidin-1-yl)ethoxy)ethoxy)ethoxy)ethyl)piperazin-1-yl)isoindoline-1,3-dione] | +
CCO/N=C(\CC)C1=C(O)CC(c2ccc(OCCOCCN3CCC(CCCN4CCN(c5ccc6c(c5)C(=O)N(C5CCC(=O)NC5=O)C6=O)CC4)CC3)cc2)CC1=O (centres unmarked) [Compound 5-D, (E)-2-(2,6-Dioxopiperidin-3-yl)-5-(4-(3-(1-(2-(2-((4′-(1-(ethoxyimino)propyl)-5′-hydroxy-3′-oxo-1′,2′,3′,6′-tetrahydro-[1,1′-biphenyl]-4-yl)oxy)ethoxy)ethyl)piperidin-4-yl)propyl)piperazin-1-yl)isoindoline-1,3-dione] | +
CCOC(=O)[C@@H](C)Oc1ccc(Oc2ccc(OCCOCCOCCOc3ccc4c(c3)C(=O)N(C3CCC(=O)NC3=O)C4=O)cn2)cc1 (stereo partly drawn) [Compound 6, Ethyl (2R)-2-(4-((5-(2-(2-(2-((2-(2,6-dioxopiperidin-3-yl)-1,3-dioxoisoindolin-5-yl)oxy)ethoxy)ethoxy)ethoxy)pyridin-2-yl)oxy)phenoxy)propanoate] | +
CCOC(=O)[C@@H](C)Oc1ccc(Oc2ccc(OCCOCCOCCN3CCN(c4ccc5c(c4)C(=O)N(C4CCC(=O)NC4=O)C5=O)CC3)cn2)cc1 (stereo partly drawn) [Compound 6-A, Ethyl (2R)-2-(4-((5-(2-(2-(2-(4-(2-(2,6-dioxopiperidin-3-yl)-1,3-dioxoisoindolin-5-yl)piperazin-1-yl)ethoxy)ethoxy)ethoxy)pyridin-2-yl)oxy)phenoxy)propanoate] | +
CCOC(=O)[C@@H](C)Oc1ccc(Oc2ccc(OCCOCCN3CCC(CCCN4CCN(c5ccc6c(c5)C(=O)N(C5CCC(=O)NC5=O)C6=O)CC4)CC3)cn2)cc1 (stereo partly drawn) [Compound 6-B, Ethyl (2R)-2-[4-[[5-[2-[2-[4-[3-[4-[2-(2,6-dioxo-3-piperidyl)-1,3-dioxo-isoindolin-5-yl]piperazin-1-yl]propyl]-1-piperidyl]ethoxy]ethoxy]-2-pyridyl]oxy]phenoxy]propanoate] | +
CCOC(=O)[C@@H](C)Oc1ccc(Oc2ccc(OC3CCN(CCOCCOCCOCCN4CCN(c5ccc6c(c5)C(=O)N(C5CCC(=O)NC5=O)C6=O)CC4)CC3)cn2)cc1 (stereo partly drawn) [Compound 6-C, Ethyl (2R)-2-(4-((5-((1-(2-(2-(2-(2-(4-(2-(2,6-dioxopiperidin-3-yl)-1,3-dioxoisoindolin-5-yl)piperazin-1-yl)ethoxy)ethoxy)ethoxy)ethyl)piperidin-4-yl)oxy)pyridin-2-yl)oxy)phenoxy)-propanoate] | −
O=C(COc1ccc(Oc2cncc(C(F)(F)F)c2)cc1)NCCCOCCOCCOCCOCCOc1ccc2c(c1)C(=O)N(C1CCC(=O)NC1=O)C2=O (centres unmarked) [Compound 7, N-[3-[2-[2-[2-[2-[2-(2,6-dioxo-3-piperidyl)-1,3-dioxo-isoindolin-5-yl]oxyethoxy]-ethoxy]ethoxy]ethoxy]propyl]-2-[4-[[5-(trifluoromethyl)-3-pyridyl]oxy]phenoxy]acetamide] | +
O=C(COc1ccc(Oc2cncc(C(F)(F)F)c2)cc1)NCCCOCCOCCOc1ccc2c(c1)C(=O)N(C1CCC(=O)NC1=O)C2=O (centres unmarked) [Compound 7-A, N-(3-(2-(2-((2-(2,6-Cioxopiperidin-3-yl)-1,3-dioxoisoindolin-5-yl)oxy)ethoxy)ethoxy)propyl)-2-(4-((5-(trifluoromethyl)pyridin-3-yl)oxy)phenoxy)acetamide] | −
O=C(COc1ccc(Oc2cncc(C(F)(F)F)c2)cc1)NCCCOCCOCCOCCOc1ccc2c(c1)C(=O)N(C1CCC(=O)NC1=O)C2=O (centres unmarked) [Compound 7-B, N-(3-(2-(2-(2-((2-(2,6-dioxopiperidin-3-yl)-1,3-dioxoisoindolin-5-yl)oxy)ethoxy)ethoxy)ethoxy)propyl)-2-(4-((5-(trifluoromethyl)pyridin-3-yl)oxy)phenoxy)acetamide] | +
O=C(COc1ccc(Oc2cncc(C(F)(F)F)c2)cc1)NCCCOCCOCCOCCOCCOCCOc1ccc2c(c1)C(=O)N(C1CCC(=O)NC1=O)C2=O (centres unmarked) [Compound 7-C, N-(1-((2-(2,6-dioxopiperidin-3-yl)-1,3-dioxoisoindolin-5-yl)oxy)-3,6,9,12,15-pentaoxaoctadecan-18-yl)-2-(4-((5-(trifluoromethyl)pyridin-3-yl)oxy)phenoxy)acetamide] | −
O=C(COc1ccc(Oc2nc3ccc(F)cc3s2)cc1)NCCCOCCOCCOCCOCCOc1ccc2c(c1)C(=O)N(C1CCC(=O)NC1=O)C2=O (centres unmarked) [Compound 8, N-[3-[2-[2-[2-[2-[2-(2,6-dioxo-3-piperidyl)-1,3-dioxo-isoindolin-5-yl]oxyethoxy]-ethoxy]ethoxy]ethoxy]propyl]-2-[4-[(6-fluoro-1,3-benzothiazol-2-yl)oxy]phenoxy]acetamide] | +
O=C(COc1ccc(Oc2nc3ccc(F)cc3s2)cc1)NCCCOCCOCCOc1ccc2c(c1)C(=O)N(C1CCC(=O)NC1=O)C2=O (centres unmarked) [Compound 8-A, N-(3-(2-(2-((2-(2,6-Dioxopiperidin-3-yl)-1,3-dioxoisoindolin-5-yl)oxy)ethoxy)ethoxy)propyl)-2-(4-((6-fluorobenzo[d]thiazol-2-yl)oxy)phenoxy)acetamide] | +
